Measurements: article PMC10184129 (Journal of Medicinal Chemistry, 2023)

Tests used:
[1] = test system: murine microglial N9 cells; conditions: LPS 100 ng/mL, 24 h; for TREM2 and TGFβ2 expression: 1-5 μM
hBChE [2] = target: T1, hBChE (Homo sapiens, UniProt P06276)
[3] = test system: Aβ25–35-induced learning impairments in mice; conditions: 3 mg/kg IP
hBChE [4] = target: T1, hBChE; remark: listed apart in the source
rCB1R = rCB1R (Rattus norvegicus, UniProt P20272)
hCB2R = hCB2R (Homo sapiens, UniProt P34972)
hCB2R, sequence (P34972 whole entry): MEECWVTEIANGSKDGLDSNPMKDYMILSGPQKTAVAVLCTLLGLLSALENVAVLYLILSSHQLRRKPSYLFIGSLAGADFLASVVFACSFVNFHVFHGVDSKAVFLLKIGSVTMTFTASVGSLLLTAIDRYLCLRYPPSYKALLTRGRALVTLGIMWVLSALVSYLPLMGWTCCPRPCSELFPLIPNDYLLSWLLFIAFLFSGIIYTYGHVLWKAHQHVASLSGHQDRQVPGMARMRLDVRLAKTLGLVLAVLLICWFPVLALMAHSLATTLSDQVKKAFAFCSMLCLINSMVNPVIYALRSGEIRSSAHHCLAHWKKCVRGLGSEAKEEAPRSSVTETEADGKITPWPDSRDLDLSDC

T1 sequence (P06276 29-602): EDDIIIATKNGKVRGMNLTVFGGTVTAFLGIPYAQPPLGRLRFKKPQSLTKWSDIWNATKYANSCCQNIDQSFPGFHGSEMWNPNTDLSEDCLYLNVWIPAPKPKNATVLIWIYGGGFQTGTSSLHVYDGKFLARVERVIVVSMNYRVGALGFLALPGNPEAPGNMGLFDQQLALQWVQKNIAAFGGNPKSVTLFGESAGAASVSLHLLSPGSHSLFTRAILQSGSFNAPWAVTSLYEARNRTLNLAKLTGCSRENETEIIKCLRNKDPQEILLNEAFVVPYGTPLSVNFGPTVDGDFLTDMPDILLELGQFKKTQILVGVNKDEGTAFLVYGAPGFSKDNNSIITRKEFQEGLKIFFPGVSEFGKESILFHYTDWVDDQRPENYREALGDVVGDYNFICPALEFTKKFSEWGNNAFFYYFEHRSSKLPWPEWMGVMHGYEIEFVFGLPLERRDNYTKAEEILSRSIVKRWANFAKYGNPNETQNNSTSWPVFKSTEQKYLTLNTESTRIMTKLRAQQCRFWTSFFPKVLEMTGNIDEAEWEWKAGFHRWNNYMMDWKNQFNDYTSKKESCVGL
rCB1R, sequence (P20272 whole entry): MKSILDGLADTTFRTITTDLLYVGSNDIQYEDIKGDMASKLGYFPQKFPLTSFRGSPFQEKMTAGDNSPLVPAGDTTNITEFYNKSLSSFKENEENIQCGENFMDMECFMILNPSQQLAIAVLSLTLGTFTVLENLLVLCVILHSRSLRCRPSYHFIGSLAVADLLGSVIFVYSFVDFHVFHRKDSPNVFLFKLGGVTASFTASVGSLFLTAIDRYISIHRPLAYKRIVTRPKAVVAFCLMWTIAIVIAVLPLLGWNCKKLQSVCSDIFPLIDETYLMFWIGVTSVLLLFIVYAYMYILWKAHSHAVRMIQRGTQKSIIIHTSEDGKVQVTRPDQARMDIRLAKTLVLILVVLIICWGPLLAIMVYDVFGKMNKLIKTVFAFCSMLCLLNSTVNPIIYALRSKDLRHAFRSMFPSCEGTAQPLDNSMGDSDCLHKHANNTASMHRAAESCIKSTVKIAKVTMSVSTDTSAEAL

CCN(CC)C(=O)c1ccc2c(c1)nc(Cc1ccc(OC(=O)N(C)C)cc1)n2CCC(C)C [15d, 4-((5-(Diethylcarbamoyl)-1-isopentyl-1H-benzo[d]imidazole-2-yl)methyl)phenyl dimethylcarbamate]
TREM2 and TGFβ2 expression [1]: No parallel change | concentration significantly decreasing expression of (i)NOS ([1]; Western blot): 1.0 µM | νmax, times higher than compound 21d (hBChE [2]): 15 | effect of highest dose on Aβ25–35-induced learning deficits, passive avoidance [3]: complete blockade

CCOc1ccc(Cc2nc3cc(OC(=O)N(C)C)ccc3n2CCC(C)C)cc1 [21a, 2-(4-Ethoxybenzyl)-1-isopentyl-1H-benzo[d]imidazole-5-yl dimethylcarbamate]
fold less active on hBChE than counterpart 15d (hBChE [4]): more than 100 fold

CCOc1ccc(Cc2nc3cc(OC(=O)N(C)CC)ccc3n2CCC(C)C)cc1 [21b, 2-(4-Ethoxybenzyl)-1-isopentyl-1H-benzo[d]imidazole-5-yl ethyl(methyl)carbamate]
affinity toward CB1R (in words) (rCB1R): only exception

CCOc1ccc(Cc2nc3cc(OC(=O)N4CCC4)ccc3n2CCC(C)C)cc1 [21d, 2-(4-Ethoxybenzyl)-1-isopentyl-1H-benzo[d]imidazole-5-yl Azetidine-1-carboxylate]
TREM2 and TGFβ2 expression [1]: No parallel change | concentration significantly decreasing expression of (i)NOS ([1]; Western blot): 2.5 µM | concentration significantly reducing IL1β release ([1]; Western blot): 1.0 µM

CCOc1ccc(Cc2nc3cc(C(=O)N(CC)CC)ccc3n2CCC(C)C)cc1 [compound 4]
agonist character in calcium mobilization (hCB2R): full agonist
